Reference: patent US20250145585A1, “HETEROCYCLIC INHIBITORS OF IGF-1R FOR TREATMENT OF DISEASE” (HORIZON THERAPEUTICS IRELAND DAC, priority 2023, published 2025)

These compounds were tested against T1, IGF-1R (Homo sapiens, UniProt P08069) (assay: Example B-2: IGF-1R Assay (PathHunter cell lines, EC80 agonist challenge, chemiluminescent detection)). Conditions: PathHunter cells, compound 60 minutes at 37° C., EC80 agonist 3 hours; read-out: IC50, Biological Activity against IGF-1R (Table B2).
T1 construct: expressed in transfected cells
Type: cell-based
Outline: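 PathHunter cells were pre-incubated with compound for 60 min at 37° C (1% vehicle), then challenged with EC80 agonist for 3 h at room temperature. Chemiluminescent detection after 1 h gave % inhibition relative to EC80 and vehicle controls, from which IC50 was derived.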

T1 sequence (P08069 31-1367): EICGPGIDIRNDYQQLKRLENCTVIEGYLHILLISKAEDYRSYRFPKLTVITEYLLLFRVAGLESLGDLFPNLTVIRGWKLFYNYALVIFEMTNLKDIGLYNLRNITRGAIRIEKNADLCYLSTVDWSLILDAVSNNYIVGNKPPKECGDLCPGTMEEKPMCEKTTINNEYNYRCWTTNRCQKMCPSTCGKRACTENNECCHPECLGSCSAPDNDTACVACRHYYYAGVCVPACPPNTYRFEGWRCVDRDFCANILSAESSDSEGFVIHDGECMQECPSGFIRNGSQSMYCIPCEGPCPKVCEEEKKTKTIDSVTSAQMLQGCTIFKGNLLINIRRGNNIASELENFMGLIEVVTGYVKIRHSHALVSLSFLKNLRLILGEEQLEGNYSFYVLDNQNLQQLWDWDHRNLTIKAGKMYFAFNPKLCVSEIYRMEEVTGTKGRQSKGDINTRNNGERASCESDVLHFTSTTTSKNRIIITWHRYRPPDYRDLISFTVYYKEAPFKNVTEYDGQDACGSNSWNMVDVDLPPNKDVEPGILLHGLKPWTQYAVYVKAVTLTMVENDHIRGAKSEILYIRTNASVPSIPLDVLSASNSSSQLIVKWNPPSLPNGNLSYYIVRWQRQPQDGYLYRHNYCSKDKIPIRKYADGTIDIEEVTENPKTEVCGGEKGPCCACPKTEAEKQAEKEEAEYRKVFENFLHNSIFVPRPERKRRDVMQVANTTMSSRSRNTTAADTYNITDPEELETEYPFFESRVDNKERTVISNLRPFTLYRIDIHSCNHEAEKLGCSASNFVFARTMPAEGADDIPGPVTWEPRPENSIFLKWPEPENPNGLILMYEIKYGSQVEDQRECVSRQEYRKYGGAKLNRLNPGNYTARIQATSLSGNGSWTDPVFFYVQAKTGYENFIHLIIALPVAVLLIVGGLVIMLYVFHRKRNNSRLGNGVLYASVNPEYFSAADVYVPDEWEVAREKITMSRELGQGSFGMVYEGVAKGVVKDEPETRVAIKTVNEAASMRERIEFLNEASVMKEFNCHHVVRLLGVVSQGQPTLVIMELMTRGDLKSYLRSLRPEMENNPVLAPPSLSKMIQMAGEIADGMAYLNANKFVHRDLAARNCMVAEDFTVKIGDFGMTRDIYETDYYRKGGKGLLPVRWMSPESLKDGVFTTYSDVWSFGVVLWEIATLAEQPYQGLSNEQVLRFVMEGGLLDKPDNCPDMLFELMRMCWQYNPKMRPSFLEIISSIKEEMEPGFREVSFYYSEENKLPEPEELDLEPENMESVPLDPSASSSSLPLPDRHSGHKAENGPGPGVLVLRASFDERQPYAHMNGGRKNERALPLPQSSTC

Row | Compound | IC50 [nM]
1 | CC(C)Nc1cc(CN2C(=O)N(c3ccc(C4(C#N)CC4(C)C)cc3)C(=O)C2(C)C)ccn1 (centres unmarked) [Compound 145, 1-(4-(3-((2-(isopropylamino)pyridin-4-yl)methyl)-4,4-dimethyl-2,5-dioxoimidazolidin-1-yl)phenyl)-2,2-dimethylcyclopropane-1-carbonitrile] | ≤ 500
2 | CC(C)Nc1cc(CN2C(=O)N(c3ccc4c(c3)N(S(C)(=O)=O)CC43CCC3)C(=O)C2(C)C)ccn1 [Compound 195, 1-((2-(isopropylamino)pyridin-4-yl)methyl)-5,5-dimethyl-3-(1′-(methylsulfonyl)spiro[cyclobutane-1,3′-indolin]-6′-yl)imidazolidine-2,4-dione] | ≤ 500
3 | CC1(C)C(=O)N(c2ccc(C3(C(F)(F)F)CC3)cc2)C(=O)N1Cc1ccnc2c1CCN2 [Compound 33, 1-((2,3-dihydro-1H-pyrrolo[2,3-b]pyridin-4-yl)methyl)-5,5-dimethyl-3-(4-(1-(trifluoromethyl)cyclopropyl)phenyl) imidazolidine-2,4-dione] | ≤ 500
4 | CC(C)Nc1cc(CN2C(=O)N(c3ccc(S(=O)(=O)C4CC4)cc3)C(=O)C2(C)C)ccn1 [Compound 353, 3-(4-(cyclopropylsulfonyl)phenyl)-1-((2-(isopropylamino)pyridin-4-yl)methyl)-5,5-dimethylimidazolidine-2,4-dione] | 500 to 2000
5 | CC1(C)CN(S(C)(=O)=O)c2cc(N3C(=O)N(Cc4ccnc(N[C@H]5CCOC[C@@H]5F)c4)C(C)(C)C3=O)ccc21 [Compound 241, 3-(3,3-dimethyl-1-(methylsulfonyl)indolin-6-yl)-1-((2-(((3R,4S)-3-fluorotetrahydro-2H-pyran-4-yl)amino)pyridin-4-yl)methyl)-5,5-dimethylimidazolidine-2,4-dione] | ≤ 500
6 | C[C@@H]1CNc2nccc(CN3C(=O)N(c4ccc(C5(C(F)(F)F)CC5)cc4)C(=O)C3(C)C)c2O1 [Compound 27, (R)-5,5-dimethyl-1-((2-methyl-3,4-dihydro-2H-pyrido[3,2-b][1,4]oxazin-8-yl)methyl)-3-(4-(1-(trifluoromethyl)cyclopropyl)phenyl) imidazolidine-2,4-dione] | ≤ 500
7 | CN1CCCC(Nc2cc(CN3C(=O)N(c4ccc(S(=O)(=O)C(F)(F)F)cc4)C(=O)C3(C)C)ccn2)C1=O (centres unmarked) [Compound 328, 5,5-dimethyl-1-((2-((1-methyl-2-oxopiperidin-3-yl)amino)pyridin-4-yl)methyl)-3-(4-((trifluoromethyl)sulfonyl)phenyl) imidazolidine-2,4-dione] | > 10000
8 | CC(C)(C#N)c1ccc(N2C(=O)N(Cc3ccnc(NC4CCOCC4)c3)C(C)(C)C2=O)cc1 [Compound 153, 2-(4-(4,4-dimethyl-2,5-dioxo-3-((2-((tetrahydro-2H-pyran-4-yl)amino)pyridin-4-yl)methyl)imidazolidin-1-yl)phenyl)-2-methylpropanenitrile] | ≤ 500
9 | COC(C)CNc1cc(CN2C(=O)N(c3ccc(C4(C(F)(F)F)CC4)cc3)C(=O)C2(C)C)ccn1 (centres unmarked) [Compound 163, 1-((2-((2-methoxypropyl)amino)pyridin-4-yl)methyl)-5,5-dimethyl-3-(4-(1-(trifluoromethyl)cyclopropyl)phenyl) imidazolidine-2,4-dione] | ≤ 500
10 | CC1(C)C(=O)N(c2ccc(C(F)(F)F)c(C#N)c2)C(=O)N1Cc1ccnc(N[C@H]2[C@@H]3COC[C@@H]32)c1 [Compound 180, 5-(3-((2-(((1R,5S,6r)-3-oxabicyclo[3.1.0]hexan-6-yl)amino)pyridin-4-yl)methyl)-4,4-dimethyl-2,5-dioxoimidazolidin-1-yl)-2-(trifluoromethyl)benzonitrile] | > 10000
11 | COC[C@@H]1COc2c(CN3C(=O)N(c4ccc(C5(C(F)(F)F)CC5)cc4)C(=O)C3(C)C)ccnc2N1 [Compound 72, (R)-1-((3-(methoxymethyl)-3,4-dihydro-2H-pyrido[3,2-b][1,4]oxazin-8-yl)methyl)-5,5-dimethyl-3-(4-(1-(trifluoromethyl)cyclopropyl)phenyl) imidazolidine-2,4-dione] | ≤ 500
12 | CC(C)(Br)Cc1cn(S(C)(=O)=O)c2cc(N3C(=O)N(Cc4ccnc5c4CC(=O)N5)C(C)(C)C3=O)ccc12 [Compound 41, 3-(3-(2-bromo-2-methylpropyl)-1-(methylsulfonyl)-1H-indol-6-yl)-5,5-dimethyl-1-((2-oxo-2,3-dihydro-1H-pyrrolo[2,3-b]pyridin-4-yl)methyl)imidazolidine-2,4-dione] | ≤ 500
13 | C[C@H]1CNc2nccc(CN3C(=O)N(c4ccc(C5(C(F)(F)F)CC5)cc4)C(=O)C3(C)C)c2O1 [Compound 28, (S)-5,5-dimethyl-1-((2-methyl-3,4-dihydro-2H-pyrido[3,2-b][1,4]oxazin-8-yl)methyl)-3-(4-(1-(trifluoromethyl)cyclopropyl)phenyl) imidazolidine-2,4-dione] | ≤ 500
14 | CC1(C)C(=O)N(c2ccc3c(c2)N(S(C)(=O)=O)CC32CCC2)C(=O)N1Cc1ccnc(NC2CCOCC2)c1 [Compound 211, 5,5-dimethyl-3-(1′-(methylsulfonyl)spiro[cyclobutane-1,3′-indolin]-6′-yl)-1-((2-((tetrahydro-2H-pyran-4-yl)amino)pyridin-4-yl)methyl)imidazolidine-2,4-dione] | ≤ 500
15 | CC1(C)C(=O)N(c2ccc(C3(C(F)(F)F)CCC3)cc2F)C(=O)N1Cc1ccnc2c1CC(=O)N2 [Compound 59, 3-(2-fluoro-4-(1-(trifluoromethyl)cyclobutyl)phenyl)-5,5-dimethyl-1-((2-oxo-2,3-dihydro-1H-pyrrolo[2,3-b]pyridin-4-yl)methyl)imidazolidine-2,4-dione] | ≤ 500
16 | CC1(C)CN(C(N)=O)c2cc(N3C(=O)N(Cc4ccnc(N[C@H]5[C@@H]6COC[C@@H]65)c4)C(C)(C)C3=O)ccc21 [Compound 253, 6-(3-((2-(((1R,5S,6r)-3-oxabicyclo[3.1.0]hexan-6-yl)amino)pyridin-4-yl)methyl)-4,4-dimethyl-2,5-dioxoimidazolidin-1-yl)-3,3-dimethylindoline-1-carboxamide] | ≤ 500

Results, then the compound that gave them:

Row | IC50 [nM] | Compound
17 | ≤ 500 | CC(C)c1ccc(N2C(=O)N(Cc3ccnc(N[C@H]4[C@@H]5COC[C@@H]54)c3)C(C)(C)C2=O)cc1C#N [Compound 279, 5-(3-((2-(((1R,5S,6r)-3-oxabicyclo[3.1.0]hexan-6-yl)amino)pyridin-4-yl)methyl)-4,4-dimethyl-2,5-dioxoimidazolidin-1-yl)-2-isopropylbenzonitrile]
18 | ≤ 500 | CC(Nc1cc(CN2C(=O)N(c3ccc(C4(C(F)(F)F)CC4)cc3)C(=O)C2(C)C)ccn1)c1cccnc1 (centres unmarked) [Compound 165, 5,5-dimethyl-1-((2-((1-(pyridin-3-yl)ethyl)amino)pyridin-4-yl)methyl)-3-(4-(1-(trifluoromethyl)cyclopropyl)phenyl)imidazolidine-2,4-dione]
19 | ≤ 500 | CC1(C)C(=O)N(c2ccc3c(c2)N(S(C)(=O)=O)CC32CCC2)C(=O)N1Cc1ccnc(NCc2cccnc2)c1 [Compound 244, 5,5-dimethyl-3-(1′-(methylsulfonyl)spiro[cyclobutane-1,3′-indolin]-6′-yl)-1-((2-((pyridin-3-ylmethyl)amino)pyridin-4-yl)methyl)imidazolidine-2,4-dione]
20 | ≤ 500 | CC1(C)CN(S(C)(=O)=O)c2cc(N3C(=O)N(Cc4ccnc(NC5CCOCC5)c4)C(C)(C)C3=O)ccc21 [Compound 209, 3-(3,3-dimethyl-1-(methylsulfonyl)indolin-6-yl)-5,5-dimethyl-1-((2-((tetrahydro-2H-pyran-4-yl)amino)pyridin-4-yl)methyl)imidazolidine-2,4-dione]
21 | ≤ 500 | COCC1(Nc2cc(CN3C(=O)N(c4ccc(C5(C(F)(F)F)CC5)cc4)C(=O)C3(C)C)ccn2)CC1 [Compound 159, 1-((2-((1-(methoxymethyl)cyclopropyl)amino)pyridin-4-yl)methyl)-5,5-dimethyl-3-(4-(1-(trifluoromethyl)cyclopropyl)phenyl) imidazolidine-2,4-dione]
22 | ≤ 500 | CC1(C)C(=O)N(c2ccc(C3(C(F)(F)F)CC3)cc2)C(=O)N1Cc1ccnc(NCc2cn[nH]c2)c1 [Compound 171, 1-((2-(((1H-pyrazol-4-yl)methyl)amino)pyridin-4-yl)methyl)-5,5-dimethyl-3-(4-(1-(trifluoromethyl)cyclopropyl)phenyl) imidazolidine-2,4-dione]
23 | ≤ 500 | COC[C@@H](C)Nc1cc(CN2C(=O)N(c3ccc4c(c3)N(S(C)(=O)=O)CC43CCC3)C(=O)C2(C)C)ccn1 [Compound 205, (R)-1-((2-((1-methoxypropan-2-yl)amino)pyridin-4-yl)methyl)-5,5-dimethyl-3-(1′-(methylsulfonyl)spiro[cyclobutane-1,3′-indolin]-6′-yl)imidazolidine-2,4-dione]
24 | ≤ 500 | CC1(C)C(=O)N(c2ccc3c(c2)N(C(=O)C2CC2)CC32CCC2)C(=O)N1Cc1ccnc(NC2CCOCC2)c1 [Compound 237, 3-(1′-(cyclopropanecarbonyl)spiro [cyclobutane-1,3′-indolin]-6′-yl)-5,5-dimethyl-1-((2-((tetrahydro-2H-pyran-4-yl)amino)pyridin-4-yl)methyl)imidazolidine-2,4-dione]
25 | ≤ 500 | CC1(C)C(=O)N(c2ccc3c(c2)N(S(C)(=O)=O)CC32CCC2)C(=O)N1Cc1ccnc(NCC23CCC(CC2)OC3)c1 [Compound 233, 1-((2-(((2-oxabicyclo[2.2.2]octan-4-yl)methyl)amino)pyridin-4-yl)methyl)-5,5-dimethyl-3-(1′-(methylsulfonyl)spiro[cyclobutane-1,3′-indolin]-6′-yl)imidazolidine-2,4-dione]
26 | ≤ 500 | C[C@@H](CC#N)Nc1cc(CN2C(=O)N(c3ccc4c(c3)N(C)CC4(C)C)C(=O)C2(C)C)ccn1 [Compound 217, (S)-3-((4-((5,5-dimethyl-2,4-dioxo-3-(1,3,3-trimethylindolin-6-yl)imidazolidin-1-yl)methyl)pyridin-2-yl)amino)butanenitrile]
